Results published in the NIST ThermoML archive (doi:10.1016/j.jct.2018.02.022).

Test: xn = mol fraction of the nth substance listed
Conditions: 92.3 kPa, Liquid; for viscosity: Concentric cylinders viscometry; for speed of sound: Frequency=3 MHz, Single path-length method; for mass density: Vibrating tube method

OCCOCCOCCO [triethylene glycol] + O
Conditions	mass density, 303.15 K [kg/m3]	mass density, 308.15 K [kg/m3]	speed of sound, 303.15 K [m/s]	speed of sound, 308.15 K [m/s]	viscosity, 303.15 K [mPa·s]	viscosity, 308.15 K [mPa·s]
x1 = 0.0101	1006.7	1005.03	1546.6	1554.2	–	–
x1 = 0.0196	1016.05	1014.27	1577.2	1582.2	–	–
x1 = 0.025	1021.12	1019.05	–	–	1.425	1.265
x1 = 0.029	1025.03	1022.86	1604.2	1606.8	–	–
x1 = 0.0381	1032.5	1030.16	1626.5	1627	–	–
x1 = 0.0489	1040.16	1037.64	–	–	2.135	1.865
x1 = 0.0496	1041.07	1038.52	1650.4	1648.6	–	–
x1 = 0.0601	1048.1	1045.38	1668.4	1664.8	–	–
x1 = 0.0689	1053.32	1050.48	1680.7	1675.8	–	–
x1 = 0.0754	1056.69	1053.78	–	–	3.109	2.68
x1 = 0.0801	1059.3	1056.32	1693.4	1687	–	–
x1 = 0.0905	1064.27	1061.17	1702.5	1695	–	–
x1 = 0.0993	1068.24	1065.07	–	–	4.145	3.561
x1 = 0.0996	1068.21	1065.01	1708.8	1700.4	–	–
x1 = 0.1479	1083.73	1080.2	1722.1	1710.8	–	–
x1 = 0.15	1085.03	1081.49	–	–	6.732	5.617
x1 = 0.1993	1094.5	1090.78	–	–	9.456	7.962
x1 = 0.2004	1093.95	1090.24	1716.5	1703.7	–	–
x1 = 0.2462	1099.63	1095.85	1705.3	1691.9	–	–
x1 = 0.2526	1100.4	1096.6	–	–	12.39	10.33
x1 = 0.2998	1103.65	1099.82	–	–	14.86	12.25
x1 = 0.3004	1103.99	1100.16	1690.6	1676.8	–	–
x1 = 0.3474	1106.59	1102.74	1678.1	1664.2	–	–
x1 = 0.3539	1106.3	1102.46	–	–	17.36	14.19
x1 = 0.3948	1108.5	1104.64	1666.6	1652.5	–	–
x1 = 0.4009	1108.18	1104.33	–	–	19.33	15.72
x1 = 0.4467	1110.04	1106.18	1655.4	1641.2	–	–
x1 = 0.4492	1109.87	1106.02	–	–	21.06	17.03
x1 = 0.4992	1111.36	1107.51	–	–	22.58	18.22
x1 = 0.5021	1111.28	1107.42	1644.9	1630.7	–	–
x1 = 0.548	1112.08	1108.22	1637.5	1623.2	–	–
x1 = 0.5484	1112.51	1108.65	–	–	23.9	19.23
x1 = 0.5923	1112.73	1108.87	1631	1616.6	–	–
x1 = 0.5996	1113.32	1109.45	–	–	24.96	20.07
x1 = 0.6442	1113.33	1109.46	1624.5	1610.1	–	–
x1 = 0.6506	1113.74	1109.87	–	–	25.86	20.77
x1 = 0.701	1113.89	1110.02	–	–	26.76	21.48
x1 = 0.7095	1113.94	1110.08	1617.7	1603.2	–	–
x1 = 0.7531	1114.3	1110.43	1613.4	1598.8	–	–
x1 = 0.7567	1113.98	1110.11	–	–	27.55	22.1
x1 = 0.7859	1114.55	1110.68	1610.5	1595.9	–	–
x1 = 0.8035	1114.18	1110.31	–	–	28.08	22.51
x1 = 0.8387	1114.87	1111	1606.6	1591.9	–	–
x1 = 0.8406	1114.51	1110.64	–	–	28.48	22.83
x1 = 0.8981	1115.27	1111.39	–	–	28.88	23.14
x1 = 0.9031	1115.25	1111.37	1602	1587.2	–	–
x1 = 0.9181	1115.31	1111.42	1601.3	1586.5	–	–
x1 = 0.9344	1115.4	1111.52	1600.4	1585.5	–	–
x1 = 0.9489	1115.8	1111.91	–	–	29.26	23.46
x1 = 0.9569	1115.5	1111.62	1599	1584.2	–	–
x1 = 0.9782	1115.59	1111.71	1597.9	1583	–	–
x1 = 1	1115.7	1111.81	1596.6	1581.7	29.59	23.72
